Source: US8143260B2, “Tricyclic amine compound” (Research Foundation Itsuu Laboratory, priority 2007, dated 2012)
“And” between values parts separate entries of the source, which are not always exact repeats. Identical values can stand only once.

Test system: human acute promyelocytic leukemia cell strain HL-60
Assay: Differentiation induction of HL-60 cells (NBT-reducing ability); enhancement of the retinoid action of Am80
Format: cell-based
Details: for Differentiation induction ratio (%), Am80 1 nM + Test compound: four days; for Differentiation induction ratio (%), Test compound alone: test compound alone 100 nM
Description: Cells of human acute promyelocytic leukemia cell strain HL-60 were cultured in a CO2 incubator (5% CO2, 37° C.) using the RPMI medium containing 5% FBS. Differentiation inducing action on the HL-60 cells induced by 4-[(5,6,7,8-tetrahydro-5,5,8,8-tetramethyl-2-naphthalenyl)carbamoyl]benzoic acid (Am80) was evaluated on the basis of ability to reduce nitroblue tetrazolium (NBT) determined by observing differentiation from promyelocytic cells into granulocytic cells as an index. The cells that entered into the logarithmic phase and reached a substantially confluent state were centrifuged at 1000 rpm for 5 minutes, and the culture supernatant was removed. The cell pellet was suspended in fresh RPMI medium containing 5% FBS at a density of 8.0×10^4 cells/ml, then the suspension was added with a test compound dissolved in DMSO at an intended concentration, and the cells were cultured for four days and then used for the experiment. The samples were prepared so as to have the same DMSO concentration.
Cell count of the cells after the culture for a predetermined period was determined by a cell counting method using a blood cell counting chamber. The NBT-reducing ability was obtained as follows. NBT was dissolved in phosphate buffered saline (PBS(−)) at a concentration of 0.2%, and the solution was added with an equivalent volume of the RPMI medium containing 5% FBS. The mixture was added with phorbol 12-myristate 13-acetate (tPA) at a concentration of 0.2 μM (about 200 ng) to prepare a reagent solution. The collected cells were centrifuged at 1000 rpm for 5 minutes, the supernatant was removed, and the remained cell pellet was added with the reagent solution. The mixture was incubated on a water bath at 37° C. for 20 minutes, and then NBT-reduced stained positive cells were counted by using the counting chamber to calculate a differentiation induction ratio. The same test was performed with allowing the compounds of the present invention prepared in the aforementioned examples (all were carboxylic acid compounds) to coexist with Am80 to confirm action of the compounds of the present invention for enhancing the retinoid action of Am80. As a compound having a retinoid action enhancing action (positive control), 4-[2,3-(2,5-dimethyl-2,5-hexano)dibenzo[b,f][1,4]thiazepin-11-yl]benzoic acid (HX630, Japanese Patent Unexamined Publication No. 10-59951) was used.

[1] = Am80 1 nM + test compound 1 × 10^−7M
[2] = Am80 1 nM + test compound 1 × 10^−8M
[3] = Am80 1 nM + test compound 1 × 10^−9M
[4] = cultured four days, NBT-positive cells

| SMILES | Differentiation induction ratio (%), Am80 1 nM + Test compound [1] | Differentiation induction ratio (%), Am80 1 nM + Test compound [2] | Differentiation induction ratio (%), Am80 1 nM + Test compound [3] | Differentiation induction ratio (%), Test compound alone [4] | Differentiation induction ratio (%), Am80 alone (Am80 alone 1 nM, cultured four days, NBT-positive cells) |
| --- | --- | --- | --- | --- | --- |
| CC1(C)CCC(C)(C)c2cc3c(cc21)Sc1ccccc1N=C3c1ccc(C(=O)O)cc1 [HX630, 4-[2,3-(2,5-dimethyl-2,5-hexano)dibenzo[b,f][1,4]thiazepin-11-yl]benzoic acid, reference compound] | 72.3% | 27.8% | 20.4% | 1.6% | – |
| CCN(c1ccc(C(=O)O)cc1)c1cc2c3c(c1)CCCCC3CCCC2 [Example 19, 4-[N-Ethyl-(5,6,7,7a,8,9,10,11-octahydro-4H-2-benzo[ef]heptalenyl)amino]benzoic acid] | 85.4% | 44.6% | 31.8% | 2.2% | – |
| O=C(O)c1ccc(N(CC2CC2)c2cc3c4c(c2)CCCCC4CCCC3)cc1 [Example 20, 4-[N-Cyclopropylmethyl-(5,6,7,7a,8,9,10,11-octahydro-4H-2-benzo[ef]heptalenyl)amino]benzoic acid] | 89.8% | 54.8% | 35.2% | 1.4% | – |
| CCN(c1ccc(C(=O)O)cc1)c1cc2c3c(c1)CCCC3CCC2 [Example 3, 4-[N-Ethyl-(5,6,6a,7,8,9-hexahydro-4H-2-phenalenyl)amino]benzoic acid] | 25.8% | 26.4% | 20.5% | 1.5% | – |
| CC1(C)CCC(C)(C)c2cc(NC(=O)c3ccc(C(=O)O)cc3)ccc21 [Am80, 4-[(5,6,7,8-tetrahydro-5,5,8,8-tetramethyl-2-naphthalenyl)carbamoyl]benzoic acid, reference compound] | – | – | – | – | 16.9% and 15.9% |
| O=C(O)c1ccc(N(CC2CC2)c2cc3c4c(c2)CCCC4CCC3)cc1 [Example 4, 4-[N-Cyclopropylmethyl-(5,6,6a,7,8,9-hexahydro-4H-2-phenalenyl)amino]benzoic acid] | 82.9% | 37.5% | 23.9% | 1.9% | – |
